Assay results published in paper PMC6148246, “HS-1371, a novel kinase inhibitor of RIP3-mediated necroptosis” (Experimental & Molecular Medicine, 2018).

What was measured:
HeLa cells = HeLa cells ectopically expressing RIP3 (immunoblot, MTT); format: cell-based, human
Description: HEK293T, HT-29, H2009, L929, HeLa, and MEF cells were grown in Dulbecco’s Modified Eagle’s Medium (DMEM) supplemented with 10% fetal bovine serum (FBS). RAW264.7 cells were grown in Roswell Park Memorial Institute (RPMI) 1640 media supplemented with 10% FBS. To generate cell lines stably expressing the RIP3 construct, HeLa and H2009 cells were infected with pLX303-hRIP3 lentivirus.
Cells were pretreated with DAB or HS-1371 for 2 h and then treated with TSZ (6 h for immunoblotting, 24 h for cell death assay). Cell lysates were analyzed by immunoblotting (left bottom panel), and cell viability was analyzed by MTT assay (right panel). The results are presented as means ± SEM. *P < 0.05, **P < 0.01, ***P < 0.001. c, d HS-1371 had the same effect on mouse cells. L929 (mouse sarcoma, c) and MEF (mouse embryonic fibroblast, d) cells were pretreated with inhibitors and then necroptosis was induced by TNF. Cell lysates were analyzed by immunoblotting (upper panel), and cell viability was analyzed by MTT assay (bottom panel). The results are presented as means ± SEM. *P < 0.05, **P < 0.01, ***P < 0.001

necrosome complex = biological target: T1, necrosome complex (Homo sapiens, UniProt Q9Y572); test: Necrosome complex formation, anti-RIP3 immunoprecipitation in HT-29 cells; format: cell-based; details: HT-29, 5 μM pretreated 2 h, TSZ 4 h
T1 construct: endogenous in cells; host or cells: HT-29
Description: (§1) Cells were rinsed in cold phosphate-buffered saline (PBS) and lysed in M2 buffer containing 20 mM Tris at pH 7, 0.5% NP-40, 250 mM NaCl, 3 mM EDTA, 3 mM EGTA, 2 mM DTT, 0.5 mM PMSF, 20 mM β-glycerol phosphate, 1 mM sodium vanadate, and 1 μg/mL leupeptin. The cell extracts were subjected to western blot analysis. For immunoprecipitation, lysates were mixed and precipitated with antibody and protein A-agarose beads overnight or for 4 h at 4 °C. Bound proteins were removed by boiling in SDS and resolved by SDS-PAGE, and immunoblotting was visualized by enhanced chemiluminescence (ECL, Amersham).
Fig. 2 Novel inhibitors can block RIP3 S227 phosphorylation. a Western blotting showing various kinase inhibitor effects on RIP3 S227 auto-phosphorylation. HT-29 cells were treated with four tested kinase inhibitors (1308, 1336, 1338, and 1371, 10 μM) for 9 h. As a control, KK5101 (Trk alpha inhibitor) and HS829 (IKK beta inhibitor) were also treated at a concentration of 10 μM for 9 h. […] HT-29 cells were treated with 4 tested kinase inhibitors for 24 h, and cell viability was analyzed by MTT assay or phase-contrast microscopy. […] Cell lysates were analyzed by immunoblotting. f HT-29 cells were pretreated with Nec-1 (40 μM), DAB (5 μM) or HS-1371 (5 μM) for 2 h and then treated with TSZ for 4 h. […] Immunoprecipitates and total lysates were analyzed by Western blotting

RIP3 = RIP3 (Homo sapiens, UniProt Q9Y572); test: Basal S227 auto-phosphorylation of RIP3 in HT-29 cells (immunoblot); format: cell-based; parameters: RIP3-expressing HT-29 cells; endogenous in cells; host or cells: HT-29; details: 10 μM, 9 h
Description: as §1
RIP3 kinase activity is essential for TNF-induced necroptosis, and human S227 auto-phosphorylation sites of RIP3 are required for the interaction of RIP3 with its substrate MLKL[13],[14], which is indispensable for downstream necroptotic cell death signaling. To test the possible effects of the RIP3 inhibitors on necroptosis, HT-29 cells were treated with the kinase inhibitors, and RIP3 kinase activity was determined by examining its phosphorylation status.
Fig. 2 Novel inhibitors can block RIP3 S227 phosphorylation. a Western blotting showing various kinase inhibitor effects on RIP3 S227 auto-phosphorylation. HT-29 cells were treated with four tested kinase inhibitors (1308, 1336, 1338, and 1371, 10 μM) for 9 h. As a control, KK5101 (Trk alpha inhibitor) and HS829 (IKK beta inhibitor) were also treated at a concentration of 10 μM for 9 h. Prototypical necroptosis stimuli (TNF + zVAD + either cycloheximide or SMAC mimetic; hereafter referred to as TCZ or TSZ) were applied for 6 h. […] HT-29 cells were treated with 4 tested kinase inhibitors for 24 h, and cell viability was analyzed by MTT assay or phase-contrast microscopy. […] HT-29 cells were pretreated with necrostatin-1 (Nec-1, 40 μM), dabrafenib (DAB, 10 μM) or necrosulfonamide (NSA, 1 μM) for 2 h and then treated with TSZ for 6 h. […] HT-29 cells were pretreated with four tested kinase inhibitors for 2 h and then treated with TSZ for 6 h. Cell lysates were analyzed by immunoblotting. f HT-29 cells were pretreated with Nec-1 (40 μM), DAB (5 μM) or HS-1371 (5 μM) for 2 h and then treated with TSZ for 4 h. Cell lysates were immunoprecipitated with anti-RIP3 antibody. Immunoprecipitates and total lysates were analyzed by Western blotting

T1 sequence (Q9Y572 whole entry, one chain of several): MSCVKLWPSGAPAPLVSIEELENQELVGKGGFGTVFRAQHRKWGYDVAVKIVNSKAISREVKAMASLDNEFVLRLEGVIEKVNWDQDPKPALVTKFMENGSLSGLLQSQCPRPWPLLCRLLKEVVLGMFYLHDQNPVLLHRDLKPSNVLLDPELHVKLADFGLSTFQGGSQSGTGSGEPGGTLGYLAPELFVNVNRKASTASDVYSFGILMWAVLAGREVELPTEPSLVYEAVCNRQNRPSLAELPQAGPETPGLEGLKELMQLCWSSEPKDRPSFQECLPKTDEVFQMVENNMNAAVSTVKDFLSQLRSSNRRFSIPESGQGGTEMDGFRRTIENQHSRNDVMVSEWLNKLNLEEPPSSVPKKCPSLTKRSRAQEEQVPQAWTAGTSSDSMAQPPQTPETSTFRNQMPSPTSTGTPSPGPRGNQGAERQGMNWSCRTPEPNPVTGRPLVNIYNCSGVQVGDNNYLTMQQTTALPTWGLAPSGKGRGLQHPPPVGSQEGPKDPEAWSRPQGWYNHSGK
Chain of RIP3 (Q9Y572 whole entry): as the sequence (Q9Y572 whole entry, one chain of several) above

SMILES: Cc1ccc(Oc2ccnc3cc(-c4cnn(C5CCNCC5)c4)ccc23)cc1 [HS-1371, 7-(1-(Piperidin-4-yl)-1H-pyrazol-4-yl)-4-(p-tolyloxy)quinoline]
- basal RIP3 phosphorylation (HeLa cells; HeLa with ectopic RIP3, 6 h, dose-dependent): decreased
- cell viability after TSZ (HeLa cells; HeLa with ectopic RIP3, TSZ 24 h, MTT, dose-dependent): gradually increased
- TSZ-induced RIP3 phosphorylation and MLKL phosphorylation (HeLa cells; HeLa with ectopic RIP3, pretreated 2 h, TSZ 6 h): effectively blocked
- necrosome complex formation (MLKL recruitment) (necrosome complex): blocked necrosome complex formation
- effect on S227 auto-phosphorylation of RIP3 at the basal level (RIP3): inhibitory effect
